Source: patent publication US9260484B2, “Small molecule composite surfaces as inhibitors of protein-protein interactions” (Ohio State Innovation Foundation, priority 2011, dated 2016)
“Also recorded” adds a separate entry of the source. Where two headings read alike, the source gives them in different places. Each block holds one molecule with its values, some of them ahead of it. Numbered stars: 1 amine (or outer) side, 2 acyl side, 3 side chain; on linkers, the order of the positions; unused ones are H or OH. Bridge positions count the residues as written; N and C are the ends. Square brackets hold non-standard residues; d marks the D form. Peptide text beside a SMILES is read from it. dβ3h(hPhe) = O=C(C[C@@H](CCc1ccccc1)N[*:1])[*:2]; Phe(4-F) = N[C@@H](Cc1ccc(F)cc1)C(=O)O; d2Nal = N[C@H](Cc1ccc2ccccc2c1)C(=O)O; X1 = CC(C)(CO[*:2])C(=O)C(=O)[*:1]; dNle = CCCC[C@@H](N)C(=O)O; Pip = O=C(O)[C@@H]1CCCCN1

Legend:
FKBP = biological target: T1, FKBP (Homo sapiens, UniProt P62942); test: fluorescence polarization (FA) competition assay for binding to FKBP
T1 construct: 200 nM recombinant FKBP
Method: To facilitate solid-phase synthesis, an invariant glutamine was added to the C-terminal side of the R^1 residue, for the purpose of backbone peptide cyclization and providing an anchor for attachment to the solid support. For this set of compounds, the dipeptide Ala-Ala was used as the effector domain. The rapalogs were tested for binding to FKBP by a fluorescence polarization competition assay^22,23. SLF^24, was labeled with the fluorescent dye fluorescein^23. Binding of the labeled ligand to FKBP increases its fluorescence anisotropy (FA) values. Addition of an unlabeled ligand to the reaction inhibits the binding of SLF to FKBP and therefore decreases the FA values. […] Subsequently, the IC50 values were converted into KI values based on the Cheng-Prusoff equation.
A previously reported synthetic ligand of FKBP^46 (SLF in FIG. 2), was labeled with the fluorescent dye fluorescein^20. Binding of the labeled ligand to FKBP increases its fluorescence anisotropy (FA) value.
The fluorescence polarization based competition assay was performed in a 384-well plate. […] After the addition of the rapalogs as the last component, the binding reactions were incubated for 1 h at room temperature to reach binding equilibrium. Anisotropy values were measured on a FlexStation 3 plate reader (Molecular Devices, Sunnyvale, Calif.).

K-Ras and Tiam = K-Ras and Tiam (Homo sapiens, UniProt P01116, G12V); test: bead assay: K-Ras binding to immobilized Myc-tagged effector protein; details: 10 μM compound; Texas red-labeled GST-K-Ras 100 nM
Method: (§1) Compound B12 was also assayed for its ability to inhibit the PPI between K-Ras and its effector proteins including PI3 kinase, Tiam, and RalGDS. The Myc-tagged effector proteins were immobilized on protein A-beads with an anti-Myc antibody.

K-Ras and PI3 kinase = K-Ras and PI3 kinase (Homo sapiens, UniProt P01116, G12V); test: as above; details: 10 μM compound; Texas red-labeled GST-K-Ras 100 nM
Method: as §1

[1] = system: H358 lung cancer cell line; test: MTT viability assay; assay type: cell-based, human
Method: (§2) FIG. 14. MTT viability assay with H358 and A549 lung cancer cell lines (both have mutant K-Ras). The assay was performed to assess the effect of compound B12 on proliferation and survival of these cell lines.
(§3) Finally, preliminary cellular assays were performed with compound […]. Singh et al. used RNA interference to down regulate mutant K-RAS in a large number of human cancer cell lines.^102 They reported that the H358 cell line is very sensitive to losing mutant K-Ras whereas the A549 cell line is hardly affected. Both are lung cancer cell lines.

[2] = system: A549 lung cancer cell line; test: MTT viability assay; assay type: cell-based, human
Method: as §2, §3

K-Ras and RalGDS = K-Ras and RalGDS (Homo sapiens, UniProt P01116, G12V); test: bead assay: K-Ras binding to immobilized Myc-tagged effector protein; details: 10 μM compound; Texas red-labeled GST-K-Ras 100 nM
Text: The Myc-tagged effector proteins were immobilized on protein A-beads with an anti-Myc antibody.

FKBP (no GST) = FKBP (no GST) (Homo sapiens, UniProt P62942); test: fluorescence polarization binding of FITC-labeled compound to FKBP
[3] = Table 2, converted from IC50 by Cheng-Prusoff equation, read-out: Ki

T1 sequence (P62942 whole entry): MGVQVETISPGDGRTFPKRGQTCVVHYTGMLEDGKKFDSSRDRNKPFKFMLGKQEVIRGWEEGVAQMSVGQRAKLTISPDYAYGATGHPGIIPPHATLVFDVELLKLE
Sequence of K-Ras and RalGDS (P01116 1-188 isoform P01116-2 G12V): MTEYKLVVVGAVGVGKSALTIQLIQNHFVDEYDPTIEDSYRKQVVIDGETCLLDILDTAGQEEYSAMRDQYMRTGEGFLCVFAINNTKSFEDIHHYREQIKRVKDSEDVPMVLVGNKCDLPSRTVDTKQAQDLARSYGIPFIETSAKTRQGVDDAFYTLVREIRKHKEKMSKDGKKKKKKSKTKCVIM
Sequence of FKBP (no GST) (P62942 whole entry): as the sequence (P62942 whole entry) above
Sequence of K-Ras and PI3 kinase (P01116 1-188 isoform P01116-2 G12V): as the sequence (P01116 1-188 isoform P01116-2 G12V) above
Sequence of K-Ras and Tiam (P01116 1-188 isoform P01116-2 G12V): as above

- Ki (FKBP; [3]): 7000 ± 1000 nM
SMILES: C[C@@H]1NC(=O)[C@H](C)NC(=O)[C@H](CCC(N)=O)NC(=O)[C@H](C)NC(=O)[C@@H]2CCCCN2C(=O)C(=O)C(C)(C)COC(=O)[C@@H](C)NC1=O [Compound 2a] (HELM PEPTIDE1{[O=C([C@@H]1CCCCN1[*:1])[*:2]].A.Q.A.A.[dA]}|CHEM1{[CC(C)(CO[*:2])C(=O)C(=O)[*:1]]}$PEPTIDE1,CHEM1,1:R1-1:R1|PEPTIDE1,CHEM1,6:R2-1:R2$$$V2.0)

SMILES: C[C@@H]1NC(=O)[C@H](C)NC(=O)[C@H](CCC(N)=O)NC(=O)C[C@H](CCc2ccccc2)NC(=O)[C@@H]2CCCCN2C(=O)C(=O)C(C)(C)COC(=O)[C@H](Cc2ccccc2)NC1=O [Compound 2j]
- Ki (FKBP): 800 ± 100 nM

- Ki (FKBP; [3]): 180 ± 60 nM
SMILES: C[C@@H]1NC(=O)[C@H](C)NC(=O)[C@H](CCC(N)=O)NC(=O)C[C@@H](CCc2ccccc2)NC(=O)[C@@H]2CCCCN2C(=O)C(=O)C(C)(C)COC(=O)[C@@H](C)NC(=O)[C@H](C)NC1=O [Compound 2p] ([Pip][dβ3h(hPhe)]QAAA[dA]; linker N-C via X1)

- Ki (FKBP; [3]): 300 ± 100 nM
SMILES: C[C@@H]1NC(=O)[C@H](C)NC(=O)[C@H](CCC(N)=O)NC(=O)C[C@@H](CCc2ccccc2)NC(=O)[C@@H]2CCCCN2C(=O)C(=O)C(C)(C)COC(=O)[C@H]([C@@H](C)O)NC(=O)[C@H](C)NC1=O [Compound 2r] ([Pip][dβ3h(hPhe)]QAAAT; linker N-C via X1)

SMILES: C[C@@H]1NC(=O)[C@H](CCC(N)=O)NC(=O)C[C@@H](CCc2ccccc2)NC(=O)[C@@H]2CCCCN2C(=O)C(=O)C(C)(C)COC(=O)[C@H](Cc2ccccc2)NC(=O)[C@H](C)NC(=O)[C@@H](C)NC1=O [Compound 2s] ([Pip][dβ3h(hPhe)]QA[dA]AF; linker N-C via X1)
- Ki (FKBP): 900 ± 200 nM

SMILES: CCCC[C@H]1NC(=O)[C@H](Cc2ccc(F)cc2)NC(=O)[C@H](CCCNC(=N)N)NC(=O)[C@@H](Cc2ccc3ccccc3c2)NC(=O)[C@H](CCCNC(=N)N)NC(=O)[C@H](CCCNC(=N)N)NC(=O)[C@H](CCC(N)=O)NC(=O)C[C@@H](CCc2ccccc2)NC(=O)[C@@H]2CCCCN2C(=O)C(=O)C(C)(C)COC1=O [Compound C12] ([Pip][dβ3h(hPhe)]QRR[d2Nal]R[Phe(4-F)][dNle]; linker N-C via X1)
- binding of GST-KRas to immobilized Tiam (K-Ras and Tiam): completely blocked
- binding of GST-KRas to immobilized PI3 kinase (K-Ras and PI3 kinase): completely blocked
- sensitivity of cells to compound ([1]; FIG. 14): sensitive
- IC50 ([1]; H358 cells, proliferation and survival, preliminary): ~10 µM
- IC50 ([2]; A549 cells, proliferation and survival, preliminary): ~50 µM
- sensitivity of cells to compound ([2]; FIG. 14): significantly less sensitive
- binding of GST-KRas to immobilized RalGDS (K-Ras and RalGDS): completely blocked; also recorded: Disruption

SMILES: CCCC[C@H]1NC(=O)[C@H](Cc2ccc(F)cc2)NC(=O)[C@H](CCCN=C(N)N)NC(=O)[C@@H](Cc2ccc3ccccc3c2)NC(=O)[C@H](CCCN=C(N)N)NC(=O)[C@H](CCCN=C(N)N)NC(=O)[C@H](CCC(N)=O)NC(=O)C[C@@H](CCc2ccccc2)NC(=O)[C@@H]2CCCCN2C(=O)C(=O)C(C)(C)COC1=O [Compound C12] ([Pip][dβ3h(hPhe)]QRR[d2Nal]R[Phe(4-F)][dNle]; linker N-C via X1)
- Kd (FKBP (no GST)): 500 nM
